Assay results: patent US20230371508A1, “COMPOSITIONS AND METHODS FOR KILLING INSECT AND NON-INSECT PESTS” (The United States of America, as represented by the …, priority 2018, published 2023)
In brackets after ≈: the same amount, converted by molar mass. Entries after “also recorded” stand apart in the source; their conditions may differ. Where two headings read alike, the source gives them in different places.

Experiments:
D. suzukii = test: Insecticidal activity on larvae and pupae development and adult emergence in pre-infested blueberries (dip); assay type: in vivo, Drosophila suzukii; conditions: for Adults / Larvae / Pupae: pre-infested berries soaked 2 min in 1% solution, assessed after 10 days at room temperature, mean of three replicates (standard error); for insecticidal toxicity against D. suzukii (in words): 1% concentration on 4 days pre-infested blueberries, 10 days incubation
Protocol: Impacts of MB and other compounds on D. suzukii control: To investigate the acute toxicity of some compounds of formula 1 against D. suzukii, a published procedure was followed (Cuthbertson, A. G. S., et al., Insects, 5: 488-498 (2014)). First, mixed-sex adults D. suzukii (100) were introduced into a plastic cage (30×30×30 cm) and reared on blueberries (100) for 4 days. After that, the infested blueberries were taken out from the cage. Half of the blueberries (50) were dipped in 100 mL aqueous emulsion of each compound listed in Table 1 at 1% concentration for 2 min as treatment, while the other half of the blueberries (50) were dipped in DI water for 2 min as blank control. Then the corresponding blueberries were separately taken out, placed in two different Petri dishes, and allowed to air dry for 2 h. Second, treatment and blank control blueberries were respectively stored in two plastic cups (32 oz) with closed caps and incubated at room temperature for 10 days. The emergence of adults was then subsequently assessed. The developments of larvae and pupae were further inspected by dissection of the treatment and blank control berries. Each treatment and blank control was repeated three times.

H. halys nymphs = test: Nymphicidal toxicity, treated filter paper in glass vial; assay type: in vivo
Protocol: Toxicities of MB, some compounds of formula 1, and commercial pesticides on H. halys nymphs: The bioassays were carried out in glass vials (20 mL), following a published procedure (Nielsen, A. L., et al., J. Econ. Entomol., 101: 1439-1442 (2008)). Filter paper was cut into round shape pieces (2.4 cm diameter). 50 μL acetone solution of one derivative or commercial pesticide with different concentrations was loaded onto the filter paper evenly, and the filter paper was dried for 1 min and then put into the bottom of vial. A small piece of green bean was put on the filter paper in the vial as food source. Different stages of H. halys nymphs were introduced into the vial and capped with a cotton ball. For each stage, 30 nymphs were used for each amount. For the nymphs of the first instar, 10 nymphs were put into 1 vial. For the nymphs of the second and third instar, 5 nymphs were put into 1 vial. For the nymphs of the fourth instar, 3 nymphs were put into 1 vial. For the nymphs of the fifth instar, 2 nymphs were put into 1 vial. The mortality was assessed after 24 hr.

H. halys eggs = test: Ovicidal toxicity, direct spray on eggs; assay type: in vivo; conditions: eggs sprayed, 10 days
Text: (§1) Ovicidal toxicities of MB and some compounds of formula 1: The aqueous solutions of one of the compounds of formula 1 with designated concentrations with different concentrations of active ingredient (AI) were separately stored in glass spray bottles according to a published procedure (Cuthbertson 2014). The eggs (10 for H. halys and 100 for P. xylostella) were laid on filter papers in Petri dishes. Different aqueous insecticidal solutions were sprayed on the surfaces of different eggs three times (˜0.5 mL) to completely cover the treatment areas. Then the Petri dishes were covered with lids and maintained in a fume hood for 10 days. The Petri dishes were then inspected for presence of nymph/larvae development or numbers of unhatched eggs.

L. dispar larvae = test: Larvicidal toxicity, treated filter paper in Petri dish; assay type: in vivo; conditions: for LC50 (95% CL): 1st stage larvae, 24 hr; for larvicidal toxicity against L. dispar (in words): in vivo
Protocol: Toxicities of MB and some compounds of formula 1 on L. dispar larvae: The bioassays were carried out in plastic Petri dish loaded with filter paper, following a published procedure (Nielsen 2008). 600 μL acetone solution of one derivative with different concentrations was loaded onto the filter paper (90 mm diameter) evenly, and the filter paper was dried for 2 min and then put into the bottom of Petri dish. 10 L. dispar larvae were put onto the Petri dish and covered with a lid. 30 larvae were used for each amount. The mortality was assessed after 24 hr.

S. invicta workers [1] = conditions: for increase of mean mortality compared with MB / mean mortality: dose 77.9 μg/ant, 24 h; for contact toxicity against S. invicta (in words): in vivo
Protocol: Fire ant bioassays were conducted in USDA, ARS Stoneville laboratory at 25° C., 80% R.H. with a 12:12 (L:D) photoperiod. Contact toxicities of MB and some compounds of formula 1 against fire ants: Topical application was used for contact toxicity bioassay. Only large workers were used for a purpose of relatively uniform body weight and ease of handling. For all compounds, acetone was used as a solvent. The solution was applied using a 0.779 μl capillary tube. Two experiments were conducted for assessing contact toxicity. […] In order to investigate the structure-activity relationship, LD50 values were also established for MB and EB. […] For each LD50 value, 5 doses of benzoates were used. Each dose was replicated 3 times. Each replicate consisted of 13 to 18 ants. Treated ants were placed in a 30-ml capped cup and dead ants were counted after 24 h.

S. invicta workers [2] = test: Fumigant toxicity in sealed glass flask; assay type: in vivo, Solenopsis invicta; conditions: for LC50 / mortality at 1.43 µg/mL: Solenopsis invicta
Protocol: A 250-ml glass flask (the whole volume is 280 ml) was used to house worker ants in fumigant toxicity bioassays. Two micro-liter of acetone solution of the tested compound was applied onto a paraffin film, which was used to seal the flask with ants. The treated spot of the paraffin film faced the inside of the flask. The upper part of the flask was coated with Fluon® to prevent ants from contacting the test material. Two experiments were conducted. […] LC50 value was established using 5 dosages. Each dosage was replicated 3 times for each of 3 colonies. Each replicate consisted of 15 to 26 ants. Ants that could not stand by themselves were considered dead. Dead ants were counted after 24 h.

Plutella xylostella eggs = test: Ovicidal toxicity, direct spray on eggs; assay type: in vivo; conditions: hatchability after 10 days; 0.05% and 0.1% concentrations (FIG. 3)
Text: as §1

[3] = 24 h, read-out: mean mortality, dosage 1.43 μg/ml, 24 h

| Compound | Adults (D. suzukii) | Larvae (D. suzukii) | Pupae (D. suzukii) | LC50 (95% CL) (H. halys eggs) | LC50 (95% CL) (L. dispar larvae) | LD50 (S. invicta workers [1]; colony 1, 24 h) [μg/ant] | LD50 (S. invicta workers [1]; colony 2, 24 h) [μg/ant] | LD50 (S. invicta workers [1]; colony 3, 24 h) [μg/ant] | mortality at 1.43 µg/mL (S. invicta workers [2]; [3]) [%] | toxicity against H. halys nymphs (in words) (H. halys nymphs; in vivo) | insecticidal toxicity against D. suzukii (in words) (D. suzukii) | LC50 (95% CL) (H. halys nymphs; 3rd stage nymphs, 24 hr) | other results |
| --- | --- | --- | --- | --- | --- | --- | --- | --- | --- | --- | --- | --- | --- |
| COC(=O)c1cccc(C)c1 [M3MB, methyl 3-methylbenzoate] | 0 | 0 | 0 | 0.016 (0.009-0.024) mg/cm^2 | 0.102 (0.083-0.121) mg/cm^2 | 70.32 | 107.48 | 67.73 | ~100 |  |  |  | LC50 (95% CL) (H. halys nymphs; 4th stage nymphs, 24 hr): 2.433 (2.000-3.417) μL/vial; LC50 (S. invicta workers [2]; 24 h, colony 1, 24 h): 0.62 µg/mL (≈ 4.13 µM); LC50 (S. invicta workers [2]; 24 h, colony 2, 24 h): 0.7 µg/mL (≈ 4.66 µM); LC50 (S. invicta workers [2]; 24 h, colony 3, 24 h): 0.63 µg/mL (≈ 4.2 µM); LC50 (S. invicta workers [2]; 24 h, read-out: mean LC50 value, mean over colonies, 24 h): 0.65 µg/mL (≈ 4.33 µM) |
| COC(=O)c1ccccc1[N+](=O)[O-] [M2NB, methyl 2-nitrobenzoate] | 0 | 0 | 0 | 0.010 (0.002-0.019) mg/cm^2 |  |  |  |  | 0 | ineffective |  |  | larvicidal toxicity against L. dispar (in words) (L. dispar larvae): did not show any toxicities |
| COC(=O)c1ccccc1Cl [M2CB, methyl 2-chlorobenzoate] | 0 | 0 | 0 | 0.011 (0.008-0.013) mg/cm^2 | 0.130 (0.097-0.159) mg/cm^2 |  |  |  | 70 to 80 |  |  |  | LC50 (95% CL) (H. halys nymphs; 2nd stage nymphs, 24 hr): 1.302 (1.137-1.610) μL/vial; LC50 (S. invicta workers [2]; 24 h, colony 1, 24 h): 0.89 µg/mL (≈ 5.22 µM); LC50 (S. invicta workers [2]; 24 h, colony 2, 24 h): 0.77 µg/mL (≈ 4.51 µM); LC50 (S. invicta workers [2]; 24 h, colony 3, 24 h): 0.56 µg/mL (≈ 3.28 µM); mean mortality (S. invicta workers [2]; dosage 1.43 μg/ml, 24 h): 79.4% |
| CCCCCOC(=O)c1ccccc1 [nPeB, n-pentyl benzoate] | 36.3(3.9) | 5.3(0.9) | 37.7(6.7) |  | 0.165 (0.118-0.208) mg/cm^2 | 35.97 | 41.16 | 28.64 |  | did not show toxicities | did not show any insecticidal activities |  | ovicidal toxicity against P. xylostella eggs (in words) (Plutella xylostella eggs): comparable toxicity comparing with MB; increase of mean mortality compared with MB (S. invicta workers [1]): 13 times; mean mortality (S. invicta workers [1]): 99.26%; contact toxicity against S. invicta (in words) (S. invicta workers [1]): comparable results; also recorded: potent contact toxicities |
| CC(C)COC(=O)c1ccccc1 [iBB, iso-butyl benzoate] | 24.7(0.9) | 6.0(1.5) | 15.7(1.9) |  | 0.193 (0.165-0.234) mg/cm^2 | 80.07 | 96.57 | 55.75 |  | deficient toxicities | poor toxicities | 4.890 (2.845-24.779) μL/vial |  |
| CCCOC(=O)c1ccccc1 [nPrB, n-propyl benzoate] | 3.0(0.6) | 1.7(0.3) | 4.0(0.6) |  | 0.159 (0.135-0.199) mg/cm^2 | 109.89 | 109.26 |  | 79.4 |  | good insecticidal toxicity | 2.591 (2.086-3.839) μL/vial | increase of mean mortality compared with MB (S. invicta workers [1]): 6 times; mean mortality (S. invicta workers [1]): 45.5% |
| CC(COc1ccc(Oc2ccccc2)cc1)Oc1ccccn1 (centres unmarked) [PF, pyriproxyfen, reference compound] |  |  |  |  | 0.086 (0.057-0.124) mg/cm^2 |  |  |  |  |  |  | 1.798 (1.397-2.797) μL/vial | LC50 (95% CL) (H. halys nymphs; 5th stage nymphs, 24 hr): 2.700 (1.881-4.836) μL/vial; LC50 (95% CL) (L. dispar larvae; listed as pyriproxyfen): 0.086 mg/cm^2 |
| O=C(OCc1ccccc1)c1ccccc1 [BB, benzyl benzoate] | 40.0(8.4) | 5.7(0.7) | 40.0(5.8) |  |  |  |  |  |  | deficient toxicities | poor toxicities |  | LC50 (95% CL) (H. halys nymphs; in vivo): 5.619 (3.028-44.599) μL/vial; larvicidal toxicity against L. dispar (in words) (L. dispar larvae): did not show any toxicities; contact toxicity against S. invicta (in words) (S. invicta workers [1]): potent contact toxicities |
| CCCCOC(=O)c1ccccc1 [nBB, n-butyl benzoate] | 25.3(1.5) | 4.7(1.2) | 15.0(2.9) |  | 0.276 (0.223-0.393) mg/cm^2 | 77.13 | 68.51 | 50.04 | 2.34 |  |  |  | LC50 (95% CL) (H. halys nymphs; 4th stage nymphs, 24 hr): 3.370 (2.441-6.922) μL/vial; contact toxicity against S. invicta (in words) (S. invicta workers [1]): comparable results; also recorded: potent contact toxicities; decrease of mean mortality compared with MB (S. invicta workers [2]; dosage 1.43 μg/ml, 24 h): 42 times |
| COC(=O)c1ccccc1C [M2MB, methyl 2-methylbenzoate] | 0 | 0 | 0 | 0.014 (0.005-0.027) mg/cm^2 | 0.155 (0.134-0.174) mg/cm^2 |  |  |  | 70 to 80 |  |  |  | LC50 (95% CL) (H. halys nymphs; 2nd stage nymphs, 24 hr): 0.974 (0.827-1.109) μL/vial; fumigant toxicity against S. invicta (in words) (S. invicta workers [2]; in vivo): significantly reduced |
| C/C(=N\C#N)N(C)Cc1ccc(Cl)nc1 [AP, acetamiprid, reference compound] |  |  |  |  | 0.221 (0.167-0.291) mg/cm^2 |  |  |  |  |  |  | 0.475 (0.301-0.641) μL/vial | LC50 (95% CL) (H. halys nymphs; 2nd stage nymphs, 24 hr): 0.257 (0.169-0.340) μL/vial; LC50 (95% CL) (H. halys nymphs; 5th stage nymphs, 24 hr): 1.414 (1.165-1.642) μL/vial; LC50 (95% CL) (L. dispar larvae; listed as acetamiprid): 0.221 mg/cm^2 |
| CCOC(=O)c1ccccc1 [EB, ethyl benzoate] | 0 | 0 | 0 | 0.014 (0.010-0.019) mg/cm^2 | 0.115 (0.107-0.123) mg/cm^2 | 164.32 | 129.62 | 126.53 |  |  |  | 1.604 (1.468-1.756) μL/vial | LC50 (S. invicta workers [2]; 24 h, colony 1, 24 h, read-out: LC50): 0.89 µg/mL (≈ 5.93 µM); LC50 (S. invicta workers [2]; 24 h, colony 2, 24 h, read-out: LC50): 0.76 µg/mL (≈ 5.06 µM); LC50 (S. invicta workers [2]; 24 h, colony 3, 24 h, read-out: LC50): 1.14 µg/mL (≈ 7.59 µM); mortality at 1.43 µg/mL (S. invicta workers [2]; 24 h, dosage 1.43 μg/ml, 24 h, read-out: mean mortality): ~100%; LC50 (S. invicta workers [2]; 24 h, mean over colonies, 24 h, read-out: mean LC50 value): 0.93 µg/mL (≈ 6.19 µM) |
